Legend:
[1] = target: T1, S-adenosylmethionine synthase isoform type-2 (Homo sapiens, UniProt P31153); test: Inhibition of human MAT2A expressed in baculovirus infected Sf9 cells expression system assessed as S-adenosyl methionine production using L-methionine as substrate pretreated for 60 mins followed by L-methionine and ATP addition
[2] = Antiproliferative activity against human HCT116-MTAP null cells assessed as cell growth inhibition incubated for 92 hrs by In-cell western analysis; format: functional, cell-based
[3] = target: T1, S-adenosylmethionine synthase isoform type-2; test: Inhibition of human recombinant His-tagged MAT2A expressed in Escherichia coli expression system assessed as S-adenosyl methionine production using L-methionine as substrate incubated for 20 mins followed by L-methionine and ATP addition by malachite green phosphate assay
[4] = target: T1, S-adenosylmethionine synthase isoform type-2; test: Inhibition of MAT2A in human Huh-7 cells assessed as inhibition of S-adenosyl methionine production measured after 6 hrs by Rapid Fire Mass Spectrometry analysis; format: cell-based
[5] = Inhibition of rat novikoff liver hepatoma MAT isozymes assessed as S-adenosyl methionine production using L-methionine as substrate in presence of ATP; format: tissue-based
[6] = Inhibition of rat liver MAT isozymes assessed as S-adenosyl methionine production using L-methionine as substrate in presence of ATP; format: tissue-based
[7] = target: T1, S-adenosylmethionine synthase isoform type-2; test: Inhibition of MAT2A in human NCI-H520 cells transfected with MAT2A empty vector assessed as inhibition of S-adenosyl methionine production measured after 6 hrs by Rapid Fire Mass Spectrometry analysis; format: cell-based
HCT-116 [8] = test: Antiproliferative activity against human HCT-116 cells expressing MTAP assessed as cell growth inhibition incubated for 24 hrs by Cell Titer Glo analysis; format: functional, cell-based; details: HCT-116, 24 h
[9] = target: T1, S-adenosylmethionine synthase isoform type-2; test: Inhibition of human MAT2A assessed as S-adenosyl methionine production using L-methionine as substrate pretreated for 60 mins followed by L-methionine and ATP addition by colorimetric analysis
[10] = target: T1, S-adenosylmethionine synthase isoform type-2; test: Inhibition of MAT2A (unknown origin) assessed as S-adenosyl methionine production using L-methionine as substrate pretreated for 60 mins followed by L-methionine and ATP addition
[11] = target: T1, S-adenosylmethionine synthase isoform type-2; test: (§1) Inhibition of N-terminal TEV cleavable 6His-tagged human MAT2A (1 to 395 residues) expressed in Escherichia coli BL21 (DE3) cells assessed as S-adenosyl methionine production using L-methionine as substrate incubated for 30 mins followed by L-methionine and ATP addition by MS/MS analysis
[12] = target: S-adenosylmethionine synthase isoform type-1 (Homo sapiens) (UniProt Q00266); test: as §1, with “MAT1A” for “MAT2A”, “334” for “395”, “analysis relative to control” for “analysis”
Chain of S-adenosylmethionine synthase isoform type-1 (Homo sapiens) (Q00266 whole entry, canonical isoform): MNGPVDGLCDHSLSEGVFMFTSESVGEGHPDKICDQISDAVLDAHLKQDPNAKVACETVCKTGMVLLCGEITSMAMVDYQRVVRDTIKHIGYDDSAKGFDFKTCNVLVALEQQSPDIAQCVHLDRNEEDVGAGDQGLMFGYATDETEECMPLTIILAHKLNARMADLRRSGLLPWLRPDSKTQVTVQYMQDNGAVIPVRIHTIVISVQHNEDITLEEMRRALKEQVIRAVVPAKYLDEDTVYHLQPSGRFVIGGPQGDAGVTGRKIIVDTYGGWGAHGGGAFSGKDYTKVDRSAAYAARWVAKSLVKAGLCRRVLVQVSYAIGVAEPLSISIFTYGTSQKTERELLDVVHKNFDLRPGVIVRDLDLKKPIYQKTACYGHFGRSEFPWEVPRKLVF

HCT-116 [13] = test: Antiproliferative activity against human HCT-116 cells expressing MTAP assessed as cell growth inhibition measured after 6 days by Cell Titer Glo analysis; format: functional, cell-based; details: HCT-116, 144 h
[14] = Antiproliferative activity against human HCT116-MTAP null cells assessed as cell growth inhibition measured after 6 days by Cell Titer Glo analysis; format: functional, cell-based; details: 144 h

T1 sequence (P31153 whole entry, canonical isoform): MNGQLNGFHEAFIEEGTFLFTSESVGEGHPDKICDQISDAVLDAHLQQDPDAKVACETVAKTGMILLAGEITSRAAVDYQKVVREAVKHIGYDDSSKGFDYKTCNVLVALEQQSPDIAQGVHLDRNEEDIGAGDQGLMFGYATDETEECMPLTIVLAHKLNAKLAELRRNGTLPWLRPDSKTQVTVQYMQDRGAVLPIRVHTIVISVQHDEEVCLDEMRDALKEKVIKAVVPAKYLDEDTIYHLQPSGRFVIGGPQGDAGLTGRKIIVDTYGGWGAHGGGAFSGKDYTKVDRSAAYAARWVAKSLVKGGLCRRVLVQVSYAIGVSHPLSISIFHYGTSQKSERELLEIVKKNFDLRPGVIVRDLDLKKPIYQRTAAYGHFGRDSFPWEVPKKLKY

Cc1cc(=O)n2nc(C)c(-c3ccccc3)c2[nH]1
IC50 [1]: 0.008 µM | IC50 [2]: 0.009 µM

CNc1ccc(/C=C/c2c(F)cccc2Cl)cc1
IC50 [3]: 2.1 µM

NC1(C(=O)O)CCCC1 [CYCLOLEUCINE]
IC50 [4]: 1300 µM | IC50 [5]: 209 µM | IC50 [6]: 209 µM | IC50 [7]: 5600 µM

CCNc1ccc2nn(-c3ccc4nn(C)cc4c3)c(=O)c(-c3ccc(Cl)cc3)c2n1
IC50 [1]: < 0.1 µM | IC50 (HCT-116 [8]): > 1 µM

[2H]C([2H])([2H])Oc1ccc(N2C(=O)N(c3ccc4nn(C)cc4c3)Cc3cnc(OCC(F)F)nc32)cc1
IC50 [1]: < 0.1 µM | IC50 (HCT-116 [8]): > 1 µM

CN(C)c1ccc(/C=C/c2c(F)cccc2F)cc1
IC50 [3]: 4.9 µM

Cc1cc(-c2cnc(NC(=O)c3cccc(CN4CCCC4=O)c3)n2C)ccc1O
IC50 [9]: < 0.5 µM

CCOc1ncc2cc(C3=CC4N=C(CCN5CCC(O)C5)N(C)C4C=C3)c(=O)n(-c3ccc(OC(F)F)cc3)c2n1 (stereo not given)
IC50 [10]: 0.0047 µM

CCOc1ncc2cc(-c3ccc(OC)cc3C)c(=O)n(-c3ccc(OC(F)F)cc3)c2n1
IC50 [10]: 0.0701 µM

CN(C)CCc1nnc2cc(-c3ccccc3)c3cc(Cl)ccc3n12
IC50 [4]: 0.225 µM | IC50 [11]: 0.42 µM | IC50 [7]: 1.2 µM | inhibition [12]: 50%

COc1ccc(-c2c(=O)n(-c3ccc4ncsc4c3)nc3ccc(OCC(F)F)nc23)cc1
IC50 [1]: < 0.1 µM | IC50 (HCT-116 [8]): > 1 µM

COc1ccc(N2Cc3ccc(NCC(F)(F)F)nc3N(c3ccc(-c4ncn[nH]4)cc3)C2=O)cc1
IC50 [1]: < 0.1 µM | IC50 (HCT-116 [8]): > 1 µM

CCNc1ccc2nn(-c3ccc4nc(C)n(C)c4c3)c(=O)c(-c3ccc(C(F)F)cc3)c2n1
IC50 [1]: < 0.1 µM | IC50 (HCT-116 [8]): > 1 µM

Cc1cc(C)c(-c2cnc(NC(=O)c3cccc(Cn4ccccc4=O)c3)n2C)cc1Br
IC50 [9]: < 0.5 µM

CCOc1ncc2cc(-c3ccc4ncn(C)c4c3)c(=O)n(-c3ccc(OC(F)F)cc3)c2n1
IC50 (HCT-116 [13]): 3.8 µM | IC50 [14]: 0.0844 µM | IC50 [10]: 0.0195 µM

Cc1cc(C)c(-c2cnc(NC(=O)c3cccc(Cn4cccn4)c3)n2C)cc1C
IC50 [9]: < 0.5 µM

COc1ccc(N2C(=O)N(c3ccc4nn(C)cc4c3)Cc3cnc(NCC(F)(F)F)nc32)cc1
IC50 [1]: < 0.1 µM | IC50 (HCT-116 [8]): > 1 µM

Cn1cnc2ccc(-c3cc4cnc(NCC(F)(F)F)nc4n(-c4ccc(OC(F)F)cc4)c3=O)cc21
IC50 (HCT-116 [13]): > 10 µM | IC50 [14]: 0.102 µM | IC50 [10]: 0.0365 µM

Source: ChEMBL document CHEMBL5137062, “Overview of Methionine Adenosyltransferase 2A (MAT2A) as an Anticancer Target: Structure, Function, and Inhibitors” (J Med Chem, 2022)
